We go through one substance from patent US8557770B2, “Method of preventing or reducing scarring of human skin” (Pharmecosse Ltd., priority 2000, dated 2013).

Series [1] concerns fibroblast cultures from normal skin. As to the kind of experiment: In vitro myofibroblast differentiation assay (α-smooth muscle actin staining), normal skin fibroblasts. The class given is cell-based, human. Conditions: GF depleted medium + 5 μg/ml, 14 days. From the text: (§1) One of the most important cell types in both normal and pathological scar formation is the myofibroblast. These cells, which differentiate from the unwounded tissue cell type (fibroblasts), are responsible for laying down scar tissue. Indeed myofibroblasts remain present in hypertrophic scars up to four years after the original wounding event. An in vitro assay was accordingly developed to identify actives which prevent or reduce myofibroblast formation and thus identify actives which are effective in reducing and/or preventing scar tissue formation.
(§2) Fibroblast cultures were initiated from normal skin, normal scars, hypertrophic scars (HTS) and burns scars.
Each culture was split into seven parts (A to G) and grown in the following different growth media: […]
(§3) The fibroblasts were grown in these media (which was replenished twice weekly) for fourteen days, fixed and stained immunohistochemically using an antibody specific for α-smooth muscle actin (a marker of myofibroblasts). […] The number of these was counted, as was the total number of cells present, and the proportion of myofibroblasts was then calculated. In this manner, the number of myofibroblasts present in each culture was determined as a percentage of the total number of cells in the culture population.

In series [2] the test system is fibroblast cultures from normal scars. As to the kind of experiment: In vitro myofibroblast differentiation assay (α-smooth muscle actin staining), normal scar fibroblasts. The class given is cell-based, human.
Text: as §1, §2
(§4) Each culture was split into seven parts (A to G) and grown in the following different growth media:
(§5) (A) was grown in normal growth medium (hereinafter referred to as NGM) which consisted of Dulbecco's modified Eagles Medium (DMEM) plus 10% Foetal Calf Serum (FCS);
(§6) (B) was grown in growth factor depleted medium (hereinafter referred to as GF depleted) which is NGM that is depleted of active polypeptide growth factors including TGFP. It is prepared by treating FCS with a reducing agent in order to attack and cleave the disulphide bonds that determine the conformation and thus the biological activity of the polypeptide growth factors;
(§7) (D) (D1-D4) were grown in growth factor depleted medium plus 1 ng/ml-100 ng/ml of insulin-like Growth Factor-I) (IGF-I) (hereinafter referred to as GF depleted+IGF-I); (E) (E1-E3) were grown in growth factor depleted medium plus 50 ng/ml-[…] of insulin-like Growth Factor II (IGF-II) (hereinafter referred to as GF depleted+IGFII); (F) (F1F3) were grown in growth factor depleted medium plus 25 ng/ml to 100 ng/ml of basic fibroblast growth factor (bFGF) (hereinafter referred to as GF depleted and bFGF); […]
as §3
(§8) Fibroblast cultures were initiated from normal scars (NS) and hypertrophic scars (HTS). […] The number of myofibroblasts was calculated as a percentage of the total cell population and the results are shown in FIGS. 1 and 2 of the drawings.
(§9) Fibroblasts cultures were initiated from normal and hypertrophic scars. […] The number of myofibroblasts were counted and calculated as a percentage of the total cells present.

Series [3] has as its system fibroblast cultures from hypertrophic scars (HTS). As to the kind of experiment: In vitro myofibroblast differentiation assay (α-smooth muscle actin staining), hypertrophic scar fibroblasts. The format is cell-based, human.
Text: as §1, §2, §4, §5, §6, §7, §3, §8, §9

The subject of series [4] is fibroblast cultures from burns scars. As to the kind of experiment: In vitro myofibroblast differentiation assay (α-smooth muscle actin staining), burns scar fibroblasts. The settings on record: 14 days. The format is cell-based, human.
Text: as §1, §2, §4, §5, §6
(D) (D1-D4) were grown in growth factor depleted medium plus 1 ng/ml-100 ng/ml of insulin-like Growth Factor-I) (IGF-I) (hereinafter referred to as GF depleted+IGF-I); (E) (E1-E3) were grown in growth factor depleted medium plus 50 ng/ml-[…] of insulin-like Growth Factor II (IGF-II) (hereinafter referred to as GF depleted+IGFII); (F) (F1F3) were grown in growth factor depleted medium plus 25 ng/ml to 100 ng/ml of basic fibroblast growth factor (bFGF) (hereinafter referred to as GF depleted and bFGF);
(G) (G1-G3) were grown in growth factor depleted medium plus 25 ng/ml to 100 ng/ml of platelet derived growth factor (PDGF) (hereinafter referred to as GF depleted+PDGF).
The fibroblasts were grown in these media (which was replenished twice weekly) for fourteen days, fixed and stained immunohistochemically using an antibody specific for α-smooth muscle actin (a marker of myofibroblasts). The stain caused α-smooth muscle actin to fluoresce green and accordingly cells that had stained green were identified as myofibroblasts. The number of these was counted, as was the total number of cells present, and the proportion of myofibroblasts was then calculated. In this manner, the number of myofibroblasts present in each culture was determined as a percentage of the total number of cells in the culture population.

In series [5] the test system is murine incisional wounds (myofibroblasts). As to the kind of experiment: Murine incisional wound healing model, α-smooth muscle actin staining score. The class given is in vivo, male BALB/c mice. From the text: After general anesthesia, both posterior flanks on male BALB/c mice were shaved and cleaned with chlorhexidine in spirit. Two 1.5 cm wounds were marked (one in each flank) parallel to the spine with permanent marker. Full thickness incisions were made along these marks down to the level of the chest wall. Both lateral skin flaps were dissected from the underlying chest wall and the wound assessed from hemorrhage. The wound edges were then infiltrated with test substance or vehicle only control, as appropriate, by injection into the wound edges. Insulatard® was diluted in normal saline (0.9%) to give a final test solution of 1 IU/ml. 0.15 ml of this test solution (0.15 IU) was applied to one of the test wounds and saline alone was applied to the contralateral wound on the same animal. Wounds were closed with interrupted 5/0 Prolene® suture. Mice were recovered from the anesthetic individually and housed in groups of 4. […]
The wounds were analysed in the following manner: The comparison of the actual severity of scarring is impossible in this and all other animal models, since in contrast to human wounds, animal wounds are rapidly closed by way of swift epidermal contraction leaving minimal areas of scarring in any case. We therefore attempted to judge the efficacy of insulin in vivo on its ability to affect the number of myofibroblasts present using immunohistochemical staining methods for the myofibroblast marker, α smooth muscle actin. To allow semi-quantitative analysis of the resulting staining, a visual grading system was developed. Scars were assessed and allocated a score depending on the intensity of alpha smooth muscle actin staining within each section. […] Each scar was assessed at a number (minimum of 3) points along its length and the intensity was scored and averaged for each section to allow comparisons between treatments. Two independent assessors assessed the scoring blindly. The number of wounds assessed for each experimental group was 8. […]

The subject of series [6] is dermal fibroblast cell lines. As to the kind of experiment: Myofibroblast number in dermal fibroblast cell lines in GFD medium with PPAR agonist. The format is cell-based, human. The settings on record: 1 IU/ml insulin alone, 14 days. From the text: Dermal fibroblast cell lines were derived from 3 patients and seeded individually onto sterile coverslips. […] Medium was refreshed twice weekly and cultures were harvested for immunohistochemical staining for α-smooth muscle actin after 14 days. The number of myofibroblasts was counted and calculated as a percentage of the total cells present, and since the ability of each cell line to differentiate into myofibroblasts varied extensively, the results were normalised as follows. Results are expressed as the mean percentage reduction in myofibroblast number for each treatment as compared to the proportion of myofibroblasts identified in GFD medium alone for that cell line. The error bars represent plus or minus one standard deviation.

The subject of the next series is murine incisional scars. Conditions: 1 dose of insulin (Day 0), harvested after 14 days, n=4.

Experimental for murine incisional scars: Scars were wrapped in saline soaked swabs and transported immediately to the laboratory for testing. Each scar was dissected into 2 equal strips (perpendicular to the line of the scar), each of which was measured using a Nikon Shadowmeter. The strip of tissue was mounted on the tensiometer, with the scar mounted at 6 mm from the jaws of the clamps. Traction was applied across the scar at a constant rate of 10 mm/minute, and the force required for disruption of the scar measured. Stress values were calculated by normalising load values to cross-sectional area of each specimen and are given in units of MPa.

For the substance “Insulin: polypeptide hormone; in vivo and Example 9 tests used Insulatard diluted in saline”, the “Number of myofibroblasts - percentage of total cell population” value is reported as 5.26 percentage of total cell popul in series [1]; 6.14 percentage of total cell popul in series [2] (GF depleted medium + 5 μg/ml, 14 days); 3.23 percentage of total cell popul in series [3] (HTS fibroblasts, GF depleted medium + 5 μg/ml, 14 days); 16.44 percentage of total cell popul in series [4] (GF depleted medium + 10 ng/ml); 15.91 percentage of total cell popul in series [4] (GF depleted medium + 100 ng/ml); 8.20 percentage of total cell popul in series [4] (GF depleted medium + 5 μg/ml). In addition, the “Effect on induction of myofibroblast differentiation by active TGFβ1” value is reported as “no effect on the rapid induction of myofibroblast differentiation” in series [2] (NGM plus 5 μg/ml insulin plus 0.5 ng/ml TGFβ1, 5 days) and “no effect on the rapid induction of myofibroblast differentiation” in series [3] (hypertrophic scar fibroblasts, NGM plus 5 μg/ml insulin plus 0.5 ng/ml TGFβ1, 5 days). The “Mean score of α-smooth muscle actin staining (out of maximum of 3)” value in series [5] (0.15 IU Insulatard injected into wound edges, day 14, 8 wounds) was determined as 0.486. Besides, the Myofibroblast score entry in series [5] (single dose 0.15 IU on day 0, day 14 after wounding (FIG. 4)) is “dropping down to normal”. For the same substance, in series [5] (single dose 0.15 IU on day 0, maximum reached over first 7 days (FIG. 4)), the Maximum myofibroblast score is on record as 1.92. The “Mean percentage reduction in myofibroblast number compared to GFD medium alone” value in series [6] is on record as 76.6%. For the same substance, the “Median wound breaking strength” value with murine incisional scars turned out to be 1.62 MPa.
